Measured values taken from the NIST ThermoML archive (doi:10.1016/j.tca.2015.07.011).
Where “and” joins values, the source holds several entries; their conditions need not be identical. Identical values can stand only once.

Columns and labels:
[1] = for mass density: 293 K, 101.33 kPa, Pycnometric method; for vapor or sublimation pressure: Transpiration method
[2] = Molar enthalpy of transition or fusion; conditions: DSC

CC(C)COc1cccc(C(=O)O)c1 [3-iso-butoxybenzoic acid]
Crystal
Conditions | Molar enthalpy of transition or fusion [kcal/mol] | mass density [kg/m3]
[1] | – | 1130
[2] | 6.02 | –

[1]
Conditions | Normal melting temperature [°C] | vapor or sublimation pressure [kPa]
354.8 K, Liquid | – | 0.00162
356.2 K, Liquid | – | 0.00181
357.4 K, Liquid | – | 0.00202
359.5 K, Liquid | – | 0.00238
361.2 K, Liquid | – | 0.00281
363 K, Liquid | – | 0.0032
364.2 K, Liquid | – | 0.00358
365.7 K, Liquid | – | 0.00406
368.3 K, Liquid | – | 0.00493
370.9 K, Liquid | – | 0.00601
372.7 K, Liquid | – | 0.00707
373.7 K, Liquid | – | 0.00763
375.3 K, Liquid | – | 0.00871
378.2 K, Liquid | – | 0.01099
380.1 K, Liquid | – | 0.013
382.7 K, Liquid | – | 0.01579
Crystal, DTA | 80.4 | –
Crystal, visual observation | 80.00 | –

CCCCOc1ccc(C(=O)O)cc1 [4-butoxybenzoic acid]
[1], Crystal
Conditions | vapor or sublimation pressure
377.8 K | 0.00164 kPa
383.4 K | 0.00285 kPa
391 K | 0.00586 kPa
396.2 K | 0.00973 kPa
399.3 K | 0.01214 kPa
401.3 K | 0.01536 kPa
406.4 K | 0.02366 kPa
411.4 K | 0.03676 kPa
415.4 K | 0.04923 kPa
417.3 K | 0.05826 kPa and 0.05838 kPa

CC(C)COc1ccccc1C(=O)O [2-iso-butoxybenzoic acid]
Conditions | mass density [kg/m3]
[1], Liquid | 1100

[1], Liquid
Conditions | vapor or sublimation pressure
343.9 K | 0.0008 kPa
353.1 K | 0.00176 kPa
363.2 K | 0.0041 kPa
365.2 K | 0.0048 kPa
369.2 K | 0.00662 kPa
371.2 K | 0.00775 kPa
371.4 K | 0.00817 kPa and 0.00791 kPa
371.5 K | 0.00808 kPa
374.2 K | 0.01017 kPa
374.4 K | 0.00999 kPa
376.5 K | 0.01179 kPa
377.3 K | 0.01245 kPa
378.5 K | 0.01391 kPa
379.2 K | 0.01467 kPa
380.1 K | 0.01546 kPa
380.2 K | 0.01553 kPa
382.4 K | 0.0177 kPa
384.2 K | 0.02038 kPa
385.8 K | 0.02237 kPa
388.1 K | 0.02622 kPa
390.3 K | 0.03064 kPa
393 K | 0.03639 kPa
395.2 K | 0.04478 kPa
398.1 K | 0.05373 kPa

CC(C)COc1ccc(C(=O)O)cc1 [4-iso-butoxybenzoic acid]
Conditions | Molar enthalpy of transition or fusion, Crystal 1 [kcal/mol] | Molar enthalpy of transition or fusion, Crystal 2 [kcal/mol] | Normal melting temperature, Crystal 1, DTA [°C] | Triple point temperature, Crystal 2, DTA [K] | mass density, Crystal [kg/m3]
[1] | – | – | 142.2 | 412.5 | 1130
[2] | 4.52 | 0.669 | – | – | –

[1]
Conditions | Normal melting temperature [°C] | vapor or sublimation pressure
342.3 K, Crystal 2 | – | 7e-05 kPa
343.5 K, Crystal 2 | – | 8e-05 kPa
346.4 K, Crystal 2 | – | 0.00011 kPa
348.5 K, Crystal 2 | – | 0.00014 kPa
349.2 K, Crystal 2 | – | 0.00015 kPa
353.4 K, Crystal 2 | – | 0.00026 kPa
353.6 K, Crystal 2 | – | 0.00025 kPa
356.9 K, Crystal 2 | – | 0.00038 kPa
359.2 K, Crystal 2 | – | 0.00046 kPa
360.4 K, Crystal 2 | – | 0.00055 kPa
361.6 K, Crystal 2 | – | 0.00066 kPa
363.4 K, Crystal 2 | – | 0.00078 kPa
363.5 K, Crystal 2 | – | 0.00078 kPa
365.4 K, Crystal 2 | – | 0.00096 kPa
365.9 K, Crystal 2 | – | 0.00102 kPa
367.8 K, Crystal 2 | – | 0.00122 kPa
368.2 K, Crystal 2 | – | 0.00119 kPa
368.7 K, Crystal 2 | – | 0.00134 kPa
368.9 K, Crystal 2 | – | 0.0014 kPa
370.7 K, Crystal 2 | – | 0.00162 kPa
373.1 K, Crystal 2 | – | 0.00199 kPa
373.3 K, Crystal 2 | – | 0.00216 kPa
378.6 K, Crystal 2 | – | 0.00342 kPa
379.3 K, Crystal 2 | – | 0.00369 kPa
381 K, Crystal 2 | – | 0.00422 kPa
388.5 K, Crystal 2 | – | 0.0089 kPa
390.5 K, Crystal 2 | – | 0.01034 kPa
393.6 K, Crystal 2 | – | 0.01381 kPa and 0.01388 kPa
393.7 K, Crystal 2 | – | 0.0142 kPa
393.8 K, Crystal 2 | – | 0.01384 kPa
395.2 K, Crystal 2 | – | 0.01617 kPa
396.9 K, Crystal 2 | – | 0.01961 kPa
397.4 K, Crystal 2 | – | 0.02032 kPa
398.6 K, Crystal 2 | – | 0.02126 kPa
399 K, Crystal 2 | – | 0.02336 kPa
399.9 K, Crystal 2 | – | 0.02413 kPa
402.6 K, Crystal 2 | – | 0.03218 kPa
403.2 K, Crystal 2 | – | 0.03283 kPa
Crystal, visual observation | 140.00 | –

COc1ccccc1C(=O)O [2-methoxybenzoic acid]
[1], Crystal
Conditions | vapor or sublimation pressure [kPa]
342.4 K | 0.00098
346.2 K | 0.00152
348.2 K | 0.00181
350.3 K | 0.00221
352.2 K | 0.00272
354.3 K | 0.00347
356.2 K | 0.00419
358.9 K | 0.00536
361.4 K | 0.0068
363.2 K | 0.00813
366.2 K | 0.01064
367.9 K | 0.01262
371.5 K | 0.01728
